Results: patent US9802942B2, “Substituted 4-methyl-pyrrolo[1,2-A]pyrimidine-8-carboxamide compounds and uses thereof for modulating glucocerebrosidase activity” (Northwestern University, priority 2015, dated 2017)
Blank lines part the entries; values can stand above or below the molecule they belong to.

Legend:
[1] = target: T1, glucocerebrosidase (GCase), recombinant wt. enzyme velaglucerase alfa (Homo sapiens, UniProt P04062); assay: Glucocerebrosidase activity assay with red substrate (Res-β-glc); type: biochemical; settings: at 50 μM
T1 construct: purchased Shire Human Genetic Therapies, Inc. Vpriv
T1 sequence (P04062 40-536): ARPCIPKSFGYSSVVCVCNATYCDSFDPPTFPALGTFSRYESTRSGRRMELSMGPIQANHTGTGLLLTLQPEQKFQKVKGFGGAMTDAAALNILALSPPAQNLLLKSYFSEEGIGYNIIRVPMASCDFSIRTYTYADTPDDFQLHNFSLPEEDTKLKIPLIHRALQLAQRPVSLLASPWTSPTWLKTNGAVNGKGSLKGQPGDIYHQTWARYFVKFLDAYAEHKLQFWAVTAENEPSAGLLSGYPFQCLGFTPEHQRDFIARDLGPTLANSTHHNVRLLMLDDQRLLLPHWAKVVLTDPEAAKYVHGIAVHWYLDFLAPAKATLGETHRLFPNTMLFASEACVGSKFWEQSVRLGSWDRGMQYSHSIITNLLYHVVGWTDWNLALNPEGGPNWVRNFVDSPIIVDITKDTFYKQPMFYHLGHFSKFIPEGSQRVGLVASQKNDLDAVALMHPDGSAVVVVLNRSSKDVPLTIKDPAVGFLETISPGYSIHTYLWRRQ
Method: The compounds in DMSO solution 0.5 μL/well were transferred to a black 96-well plate (the final titration was 24 nM to 50 μM, 12 concentrations, 2 times dilution). 33.5 μL enzyme solution (7.5 nM final concentration) was transferred to the wells. After 5 min of incubation at room temperature, the enzyme reaction was initiated by the addition of 33 μL/well blue substrate or 66.5 μL/well red substrate. Final concentrations of the blue substrate (4MU-Glc) and red substrate (Res-Glc) were 1.5 mM and 30 μM, respectively. The red substrate reaction was measured in the Biotek Synergy H1 multi-mode plate reader with Ex=573 nm and Em=610 nm at 37° C. every 20 sec for 30 min. The blue substrate reaction was terminated by the addition of 33 μL/well stop solution (1 M NaOH and 1 M glycine mixture, pH 10) after 30 min of incubation at 37° C. The fluorescence was then measured in the plate reader at Ex=365 nm and Em=440 nm. […]
The compounds in DMSO solution 0.5 μL/well was transferred to a black 96-well plate (the final titration was 24 nM to 50 μM, 12 concentrations). […] The red substrate reaction was measured in the Biotek Synergy H1 multi-mode plate reader with Ex=573 nm and Em=610 nm at 37° C. in every 20 seconds for 30 min. […] The fluorescence was then measured in the plate reader with Ex=365 nm and Em=440 nm.

[2] = target: T2, GCase (Homo sapiens, UniProt P04062); assay: Binding affinity test by FP assay (competition with probe 3); settings: in words; 19.5 nM to 10 μM
T2 construct: purchased Shire Human Genetic Therapies, Inc. Vpriv
T2 sequence (P04062 40-536): T1 sequence (P04062 40-536)
Method: The enzyme in GCase enzyme activity buffer (25 μL/well) was added to a 384-well black plate. The fluorescent probe 3 (25 nL/well, 50 nM final concentration) was transferred to a 384-well black plate using a Labcyte Echo 550 Liquid Handler system. Compounds in DMSO stock solution (50 nL) were transferred to the plate. The plate was shaken at room temperature in dark for 20 min. The final concentration was 19.5 nM to […], 10 concentrations, 2 times dilution. The fluorescence polarization was measured in a Molecular Devices Analyst GT with Ex=535 nm and Em=580 nm, G Factor=1.05.
The enzyme in GCase enzyme activity buffer (25 μL/well) was added to a 384-wells black plate, The fluorescent probe 3 (25 nL/well, 50 nM final concentration) was transferred to a 384-wells black plate by using Labcyte Echo 550 Liquid Handler system. Compounds 1, and 2 in DMSO stock solution (50 nL) (the final titration was 19.5 nM to 10 μM, 10 concentrations) were transferred to the plate. The plate was shook at room temperature in dark for 20 min. The fluorescence polarization was measured in Molecular Devices Analyst GT with Ex=535 nm and Em=580 nm, G Factor=1.05.

[3] = target: T1, glucocerebrosidase (GCase), recombinant wt. enzyme velaglucerase alfa; assay: Glucocerebrosidase activity assay with blue substrate (4MU-Glc); type: biochemical; settings: 4MU-Glc substrate enzyme activity assay
Method: The compounds in DMSO solution 0.5 μL/well were transferred to a black 96-well plate (the final titration was 24 nM to 50 μM, 12 concentrations, 2 times dilution). 33.5 μL enzyme solution (7.5 nM final concentration) was transferred to the wells. After 5 min of incubation at room temperature, the enzyme reaction was initiated by the addition of 33 μL/well blue substrate or 66.5 μL/well red substrate. Final concentrations of the blue substrate (4MU-Glc) and red substrate (Res-Glc) were 1.5 mM and 30 μM, respectively. The red substrate reaction was measured in the Biotek Synergy H1 multi-mode plate reader with Ex=573 nm and Em=610 nm at 37° C. every 20 sec for 30 min. The blue substrate reaction was terminated by the addition of 33 μL/well stop solution (1 M NaOH and 1 M glycine mixture, pH 10) after 30 min of incubation at 37° C. The fluorescence was then measured in the plate reader at Ex=365 nm and Em=440 nm.
The recombinant wt. enzyme velaglucerase alfa (Vpriv®, Shire Human Genetic Therapies, Inc.) was obtained from residual solution after clinical infusions. The GCase activity assay buffer was composed of 50 mM citric acid, 176 mM K2HPO4, and 0.01% Tween-20 at pH 5.9. A solution of 1 M sodium hydroxide and 1 M glycine was used as the stop solution for the 4MU-β-glc substrate assay.
The compounds in DMSO solution 0.5 μL/well was transferred to a black 96-well plate (the final titration was 24 nM to 50 μM, 12 concentrations). 33.5 μL enzyme solution (7.5 nM final concentration) was transferred to the wells. After 5 min of incubation at room temperature, the enzyme reaction was initiated by the addition of 33 μL/well 4MU-Glc substrate or 66.5 μL/well red substrate. Final concentrations of the 4MU-Glc substrate and Res-Glc substrate were 1.5 mM and 30 μM, respectively. The red substrate reaction was measured in the Biotek Synergy H1 multi-mode plate reader with Ex=573 nm and Em=610 nm at 37° C. in every 20 seconds for 30 min. The 4MU-Glc substrate reaction was terminated by the addition of 33 μL/well stop solution (1 M NaOH and 1 M glycine mixture, pH 10) after 30 min of incubation at 37° C. The fluorescence was then measured in the plate reader with Ex=365 nm and Em=440 nm.

[4] = target: T3, covalent activated GCase (Homo sapiens, UniProt P04062); assay: Saposin C activation assay with 4MU-Glc substrate, probe 4 pre-activated enzyme; type: biochemical; settings: pH 4.7
T3 construct: purchased Shire Human Genetic Therapies, Inc. Vpriv
T3 sequence (P04062 40-536): T1 sequence (P04062 40-536)
Method: (§1) Saposin C (0.5 μL/well) was added to a black 96-well plate (the final titration was 1.72 nM to 1.76 μM, 12 concentrations). The compound 4 activated enzyme and wt. enzyme (33.5 μL/well, 7.5 nM final concentration) in assay buffer (50 mM Citric acid, 176 mM K2HPO4, 0.01% tween-20, 0.01% (g/mL) phosphatidylserine, pH 4.7) was added to the wells, respectively. After 5 min of incubation at room temperature, the enzyme reaction was initiated by the addition of 33 μL/well 4MU-Glc substrate. Final concentrations of the 4MU-Glc substrate was 1.5 mM. The reaction was terminated by the addition of 33 μL/well stop solution (1 M NaOH and 1 M glycine mixture, pH 10) after 30 min of incubation at 37° C. The fluorescence was then measured in the plate reader with Ex=365 nm and Em=440 nm.

[5] = target: T4, wt. GCase (Homo sapiens, UniProt P04062); assay: Saposin C activation assay with 4MU-Glc substrate, wt. enzyme; type: biochemical; settings: pH 4.7
T4 construct: purchased Shire Human Genetic Therapies, Inc. Vpriv
T4 sequence (P04062 40-536): T1 sequence (P04062 40-536)
Method: as §1

activation of Res-β-glc substrate hydrolysis [1]: 10 folds
activity in FP competition with probe 3 [2]: much higher activity
maximum activity / activation activity [3]: around 14 folds
AC50 ([3]; read-out: AC50): 6310 nM
Molecule: Cc1cc(C)n2ccc(C(=O)Nc3ccc(-c4cn(CCOCCOCCN)nn4)cc3)c2n1 [No. 3, N-(4-(1-(2-(2-(2-aminoethoxy)ethoxy)ethyl)-1H-1,2,3-triazol-4-yl)phenyl)-2,4-dimethylpyrrolo[1,2-a]pyrimidine-8-carboxamide]

AC50 [4]: 71 nM
AC50 [5]: 100 nM
B1: Saposin C: a natural co-factor of GCase (protein, UniProt P07602 311-390, looked up)
Saposin-C: SDVYCEVCEFLVKEVTKLIDNNKTEKEILDAFDKMCSKLPKSLSEECQEVVDTYGSSILSILLEEVSPELVCSMLHLCSG
modifications: Saposin-C
notes: a natural co-factor of GCase
